Assay results as given in US6503935B1, “Imidazoles and related compounds as α1A agonists” (Abbott Laboratories, priority 1998, dated 2003).
Where two headings read alike, the source gives them in different places.

Legend:
[1] = tested on: Anesthetized Dogs; experiment: Mean arterial pressure (MAP) in anesthetized dogs; assay type: in vivo, dog; conditions: iv dose causing a maximum increase in MAP of 20 mm Hg, anesthetized female dogs
Source text: (§1) In vivo Functional Assays-Assessment of Intrurethral Pressure (IUP) and Mean Arterial Pressure (MAP) in Anesthetized Dogs
(§2) Female dogs (Marshall Farms, North Rose, N.Y.) greater that 2 years of age and weighing between 12 and 15 kg were used in these studies. At least 2 weeks prior to any agonist dosing, dogs were instrumented for the chronic measurement of arterial blood pressure by implanting a telemetry transducer/transmitter (TA11PA-C40, Data Sciences International, St. Paul, Minn.) into a carotid artery.
(§3) On the test day, dogs fasted since the previous afternoon were pre-anesthetized with thiopental sodium 15 mg/kg i.v. (Pentothal™, Abbott) and intubated. Anesthesia was maintained by allowing the dog to spontaneously breathe a mixture of isoflurane (2.5 to 3 volume %) and oxygen delivered by a Narkomed Standard anesthesia system (North American Drager, Telford, Pa.). An Abbocath-T™ i.v. catheter (18-G, Abbott) was inserted into the cephalic vein for the administration of agonists. A telemetry receiver (RA1310, DataSciences) was placed under the head of each dog and was interfaced to a computerized data acquisition system (Modular Instruments Inc.(MI2), Malvern, Pa.) which allowed for the continuous calibrated recording of arterial blood pressure which was electronically filtered to determine its mean value (MAP).
(§4) Dogs with chronic telemetry implants anesthetized as described above were placed in dorsal recumbency and a balloon catheter was inserted into the urethral orifice and advanced approximately 15 cm until the tip was well inside the bladder. The balloon was then inflated with 1 ml of room air and the catheter slowly withdrawn until resistance (corresponding to the bladder neck) was evident. The balloon was then deflated and the catheter withdrawn an additional 2 cm. The balloon was then reinflated and its catheter port connected to a Gould Statham P23Dd pressure transducer interfaced to a computerized data acquisition system (Modular Instruments, Inc., Malvern, Pa.) for the measurement of intraurethral pressure. Increasing iv doses of test agonists were administered and the maximum effect of each dose on IUP was recorded. The effect of each dose was allowed to return to baseline before the next dose was given.
(§5) From the resulting dose response curve, an ED5 value, for the dose causing a maximum increase in IUP of 5 mm Hg, could be estimated. An ED20 value for the dose causing a maximum increase in MAP of 20 mm Hg could also be estimated. A selectivity ratio of MAP ED20 vs. IUP ED5 was calculated.

[2] = tested on: Anesthetized Dogs; experiment: Intraurethral pressure (IUP) in anesthetized dogs; assay type: in vivo, dog; conditions: Canis lupus familiaris; iv dose causing a maximum increase in IUP of 5 mm Hg, anesthetized female dogs; read-out: Mean IUP ED5
[3] = biological target: T1, α1b (hamster receptor expressed in mouse fibroblasts) (Mesocricetus auratus, UniProt P18841); experiment: Radioligand binding with [3H]-prazosin, α1b; conditions: hamster receptor expressed in mouse fibroblasts, [3H]-prazosin; read-out: Radioligand Binding Ki α1b (Hamster)
T1 construct: expressed in transfected cells; host or cells: mouse fibroblasts
T1 sequence (P18841 1-515): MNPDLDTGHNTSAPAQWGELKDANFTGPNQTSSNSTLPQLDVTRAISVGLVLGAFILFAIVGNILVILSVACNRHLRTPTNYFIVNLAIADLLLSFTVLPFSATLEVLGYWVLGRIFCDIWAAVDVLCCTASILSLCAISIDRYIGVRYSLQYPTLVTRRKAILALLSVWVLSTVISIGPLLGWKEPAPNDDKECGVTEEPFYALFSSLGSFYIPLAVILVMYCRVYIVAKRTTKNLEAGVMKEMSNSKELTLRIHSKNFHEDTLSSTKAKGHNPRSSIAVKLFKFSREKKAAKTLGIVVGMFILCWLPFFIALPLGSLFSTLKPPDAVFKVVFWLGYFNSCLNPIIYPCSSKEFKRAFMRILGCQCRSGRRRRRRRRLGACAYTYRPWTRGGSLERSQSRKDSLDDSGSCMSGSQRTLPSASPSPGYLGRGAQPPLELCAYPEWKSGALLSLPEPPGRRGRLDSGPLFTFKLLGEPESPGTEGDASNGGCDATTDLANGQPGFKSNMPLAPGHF
Method: (§6) For purposes of discussing α1 adrenoceptor subtypes, the IUPHAR convention of using lower case letters to define molecular clones and upper case letters to indicate pharmacologically defined adrenoceptors has been followed. Compounds of formula I were evaluated in radioligand binding assays specific for α1A (rat submaxillary gland), α1b (hamster receptor expressed in mouse fibroblasts) and α1d (rat receptor expressed in mouse fibroblasts) using [^3H]-prazosin as the radioligand as described in Knepper, et al. J. Pharm.

[4] = biological target: T2, α1D (rat aorta) (Rattus norvegicus, UniProt P23944); experiment: Agonist contraction of smooth muscle tissue, rat aorta; assay type: cell-based; conditions: rat aorta, endothelium removed; read-out: Agonist Tissue Response (pD2) α1D (rat aorta) (converted)
T2 construct: α1B (rat spleen) and α1D (rat aorta) receptors; from tissue; host or cells: rat aorta strips, endothelium removed
T2 sequence (P23944 1-561): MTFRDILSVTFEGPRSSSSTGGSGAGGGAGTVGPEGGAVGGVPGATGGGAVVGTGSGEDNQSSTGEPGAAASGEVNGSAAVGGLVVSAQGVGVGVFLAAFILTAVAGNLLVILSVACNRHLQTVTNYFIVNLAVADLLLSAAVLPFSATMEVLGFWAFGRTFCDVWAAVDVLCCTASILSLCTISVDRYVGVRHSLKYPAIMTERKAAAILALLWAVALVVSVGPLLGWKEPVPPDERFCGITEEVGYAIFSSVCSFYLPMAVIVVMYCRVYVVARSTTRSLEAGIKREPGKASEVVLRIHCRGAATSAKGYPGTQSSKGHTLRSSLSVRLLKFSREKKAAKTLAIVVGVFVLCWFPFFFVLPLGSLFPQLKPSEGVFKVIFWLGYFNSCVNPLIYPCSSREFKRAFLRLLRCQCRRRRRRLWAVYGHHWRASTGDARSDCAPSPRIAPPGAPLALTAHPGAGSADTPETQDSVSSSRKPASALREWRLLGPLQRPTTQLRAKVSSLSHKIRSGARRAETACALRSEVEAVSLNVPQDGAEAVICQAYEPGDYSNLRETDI

[5] = biological target: T3, α1B (rat spleen) (Rattus norvegicus, UniProt P15823); experiment: Agonist contraction of smooth muscle tissue, rat spleen; assay type: cell-based; conditions: rat spleen; read-out: Agonist Tissue Response (pD2) α1B (rat spleen) (converted)
T3 construct: α1B (rat spleen) and α1D (rat aorta) receptors; from tissue; host or cells: rat spleen
T3 sequence (P15823 1-515): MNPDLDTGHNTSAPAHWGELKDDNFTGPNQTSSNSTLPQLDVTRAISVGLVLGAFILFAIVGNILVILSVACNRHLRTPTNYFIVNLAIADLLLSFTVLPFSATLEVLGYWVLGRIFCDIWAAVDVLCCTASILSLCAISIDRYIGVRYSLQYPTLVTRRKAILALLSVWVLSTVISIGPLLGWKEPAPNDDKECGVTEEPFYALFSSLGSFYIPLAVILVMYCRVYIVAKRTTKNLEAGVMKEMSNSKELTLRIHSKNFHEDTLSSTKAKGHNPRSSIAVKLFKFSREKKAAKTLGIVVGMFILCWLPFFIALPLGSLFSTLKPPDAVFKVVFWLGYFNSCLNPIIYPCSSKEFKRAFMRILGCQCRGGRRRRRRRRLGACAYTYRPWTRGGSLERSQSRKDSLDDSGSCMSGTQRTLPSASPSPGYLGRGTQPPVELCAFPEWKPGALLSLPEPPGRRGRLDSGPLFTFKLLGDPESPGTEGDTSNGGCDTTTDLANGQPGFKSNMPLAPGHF

[6] = biological target: T4, α1d (rat receptor expressed in mouse fibroblasts) (Rattus norvegicus, UniProt P23944); experiment: Radioligand binding with [3H]-prazosin, α1d; conditions: rat receptor expressed in mouse fibroblasts, [3H]-prazosin; read-out: Radioligand Binding Ki α1d (Rat)
T4 construct: expressed in transfected cells; host or cells: mouse fibroblasts
T4 sequence (P23944 1-561): T2 sequence (P23944 1-561)
Method: as §6

[7] = biological target: T5, α1A (rat submaxillary gland) (Rattus norvegicus, UniProt P43140); experiment: Radioligand binding with [3H]-prazosin, α1A; conditions: rat submaxillary gland, [3H]-prazosin
T5 construct: α1A (rat submaxillary gland); from tissue; host or cells: rat submaxillary gland
T5 sequence (P43140 1-466): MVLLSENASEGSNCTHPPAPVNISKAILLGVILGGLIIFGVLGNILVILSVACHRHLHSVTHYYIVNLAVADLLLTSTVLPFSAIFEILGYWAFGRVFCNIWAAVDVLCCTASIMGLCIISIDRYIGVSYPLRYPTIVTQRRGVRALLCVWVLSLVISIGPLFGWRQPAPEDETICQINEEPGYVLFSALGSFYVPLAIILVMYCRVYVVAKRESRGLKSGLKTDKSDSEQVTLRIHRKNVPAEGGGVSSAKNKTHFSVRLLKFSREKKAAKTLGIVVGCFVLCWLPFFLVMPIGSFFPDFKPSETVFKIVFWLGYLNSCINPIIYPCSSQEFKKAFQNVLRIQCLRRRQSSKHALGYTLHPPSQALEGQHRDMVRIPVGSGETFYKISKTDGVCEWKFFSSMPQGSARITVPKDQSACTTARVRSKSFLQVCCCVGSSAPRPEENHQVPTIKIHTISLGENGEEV
Method: as §6

[8] = tested on: Anesthetized Dogs; experiment: Intraurethral pressure (IUP) in anesthetized dogs; assay type: in vivo, dog; conditions: iv, anesthetized female dogs
Source text: as §1, §2, §3, §4, §5

[9] = biological target: T6, α1A (rabbit urethra) (Oryctolagus cuniculus, UniProt O02824); experiment: Agonist contraction of smooth muscle tissue, rabbit urethra; assay type: cell-based; conditions: rabbit urethra; read-out: Agonist Tissue Response (pD2) α1A (rab ureth) (converted)
T6 construct: tested for α1A functional activity using rabbit urethra; from tissue; host or cells: rabbit urethra
T6 sequence (O02824 1-466): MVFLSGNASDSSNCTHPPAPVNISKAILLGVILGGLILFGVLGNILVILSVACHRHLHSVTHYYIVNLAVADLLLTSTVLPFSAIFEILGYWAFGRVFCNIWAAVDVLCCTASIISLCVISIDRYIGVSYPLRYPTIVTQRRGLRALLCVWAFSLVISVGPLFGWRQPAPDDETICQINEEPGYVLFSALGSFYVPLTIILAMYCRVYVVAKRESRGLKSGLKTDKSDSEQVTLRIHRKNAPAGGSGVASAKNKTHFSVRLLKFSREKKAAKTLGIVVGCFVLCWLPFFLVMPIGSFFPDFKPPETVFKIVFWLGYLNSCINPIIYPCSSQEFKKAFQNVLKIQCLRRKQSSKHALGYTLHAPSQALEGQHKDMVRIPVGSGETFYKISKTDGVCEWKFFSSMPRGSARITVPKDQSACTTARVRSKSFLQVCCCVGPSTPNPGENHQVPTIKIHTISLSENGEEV
Method: Most of the compounds were tested for α1A functional activity using rabbit urethra as follows. Female New Zealand white rabbits (2.0-3.5 Kg) were sedated with CO2 and decapitated. […] Subsequent experimental conditions were as described above for the other tissues. Agonist concentration response curves were cumulative except for the vas deferens assay in which the transient response made such measurements impractical.

| SMILES | Mean MAP ED20 [1] [nmol/kg] | ED (5 mmHg IUP increase) [2] [µmol/kg] | Ki [3] [µM] | EC50 [4] [µM] | EC50 [5] [µM] | Ki [6] [µM] | Ki [7] [µM] | ED (5 mmHg IUP increase) ([8]; Canis lupus familiaris, iv dose causing a maximum increase in IUP of 5 mm Hg, read-out: Mean IUP ED5) [µmol/kg] | Mean Selectivity Ratio MAP ED20/IUP ED5 [8] | EC50 [9] [µM] |
| --- | --- | --- | --- | --- | --- | --- | --- | --- | --- | --- |
| CS(=O)(=O)Nc1cccc2c1CCC[C@H]2c1c[nH]cn1 [Example 9, (+)-N-[(5R)-5-(1H-imidazol-4-yl)-5,6,7,8-tetrahydro-1-naphthalenyl]methanesulfonamide] | 48.7 | 0.0204 |  |  |  |  |  |  |  |  |
| CS(=O)(=O)Nc1cccc2c1CCC[C@@H]2c1c[nH]cn1 [Example 10, (−)-N-[(5S)-5-(1H-imidazol-4-yl)-5,6,7,8-tetrahydro-1-naphthalenyl]methanesulfonamide] | >300 | > 0.3 |  |  |  |  |  |  |  |  |
| Cl.Cn1cnc(C2CCCc3c(NS(C)(=O)=O)cccc32)c1 (stereo not drawn) [Example 14, N-[5,6,7,8-tetrahydro-5-(1-methyl-1H-imidazol-4-yl)-1-naphthalenyl]methanesulfonamide, hydrochloride] | >1000 | > 1 | 2.02 | > 1000 | > 1000 | 1.04 | 0.277 |  |  |  |
| CC(=O)Nc1cccc2c1CCCC2c1c[nH]cn1.O=C(O)/C=C\C(=O)O (stereo not drawn) [Example 16, N-[5,6,7,8-tetrahydro-5-(1H-imidazol-4-yl)-1-naphthalenyl]acetamide, maleate] | 220 | 0.0684 |  |  |  |  |  |  |  |  |
| CS(=O)(=O)Nc1cccc2c1OCCC2c1c[nH]cn1.O=C(O)/C=C\C(=O)O (stereo not drawn) [Example 19, N-[4-(1H-imidazol-4-yl)-3,4-dihydro-2H-chromen-8-yl]methanesulfonamide, maleate] |  | 0.0671 |  |  |  |  |  |  |  |  |
| O=C(O)/C=C\C(=O)O.O=S(=O)(CC(F)(F)F)Nc1cccc2c1CCCC2c1c[nH]cn1 (stereo not drawn) [Example 20, N-[5,6,7,8-tetrahydro-5-(1H-imidazol-4-yl)-1-naphthalenyl]-2,2,2-trifluoroethanesulfonamide, maleate] | 885 |  |  | > 1000 | > 1000 |  | 0.253 | 0.209 | 6.1 | 2.82 |
| CCS(=O)(=O)Nc1cccc(Cc2c[nH]cn2)c1.O=C(O)/C=C\C(=O)O [Example 30, N-[3-(1H-imidazol-4-ylmethyl)phenyl]ethanesulfonamide, maleate] | 80.5 | 0.0121 | 0.882 | > 1000 | 0.692 | 0.279 | 0.135 |  |  |  |
| CCS(=O)(=O)Nc1cccc2c1CCC2c1c[nH]cn1.O=C(O)/C=C\C(=O)O (stereo not drawn) [Example 39, N-[1-(1H-imidazol4-yl)-2,3-dihydro-1H-inden-4-yl]ethanesulfonamide, maleate] | 5.6 | 0.0044 |  |  |  |  |  |  |  |  |
